Measured values published in patent US20050090474A1, “Methods and compositions for enhancing and inhibiting fertilization” (priority 2002, published 2005).
Entries after “also recorded” stand apart in the source; their conditions may differ. Blank lines part the entries; values can stand above or below the compound they belong to.

What was measured:
Type in all cases: cell-based
ERK = assay: Western blot with antibody against phosphorylated (active) ERK; details: capacitated human spermatozoa, 0.2 M vanadate, 60 min, FIG. 4a
Description: (§1) FIGS. 4a-f are autoradiograms depicting expression and activity of MAPK proteins in human spermatozoa. LβT2 cells were treated for 60 min with 50 ng/ml 12-O-Tetradecanoylphorbol-13-acetate (TPA, FIGS. 4a-f, lane 1) and capacitated human spermatozoa were treated for 60 min with 0.2 M vanadate (FIGS. 4a-f, lane 3) or were remained untreated (FIGS. 4a-f, lane 2). Cell lysates were subsequently prepared and subjected to Western blot analysis with antibodies directed at the active, phosphorylated form of ERK, p38 and JNK (FIGS. 4a, 4c and 4e, respectively), or with antibodies directed at the unphosphorylated form of ERK, p38 and JNK (FIGS. 4b, 4d and 4f, respectively).
(§2) Western blot analysis—Western blot analysis was effected with antibodies directed at ERK, JNK and p38 proteins as well as with antibodies directed at the phosphorylated forms of these MAPK proteins (Sigma Rehovot, Israel). The assay was performed as previously described (Yung et al., 1997).
(§3) Molecular identification of MAPK cascade proteins in human spermatozoa—Capacitated human spermatozoa cell lysate were generated as described and subjected to Western blot analysis using MAPK antibodies specific to either the phosphorylated or the general forms of ERK, p38 and INK proteins. […]

p38 = assay: Western blot with antibody against phosphorylated (active) p38; details: capacitated human spermatozoa, 0.2 M vanadate, 60 min, FIG. 4c
Description: as §1, §2, §3

[1] = tested on: capacitated human spermatozoa; assay: Drug effect on acrosome reaction; parameters: Acrosome reaction: unit not given here; details: for AR stimulated by A23187 in the presence of inhibitor / stimulated AR observed in the presence of progesterone and hZP-3, effect of inhibitor: Table 1; for stimulated AR observed in the presence of progesterone and hZP-3, effect of inhibitor: progesterone- and hZP-3-stimulated AR; for Acrosome reaction (AR) stimulated by inducer: inducer alone, stimulation over control
Description: (§4) Sperm capacitation—Isolated sperm samples were incubated for 3 hours at 36° C. in HAM's F-10 medium supplemented with 0.3% BSA as in Rotem et al., 1990a, b
Drug effect on acrosome reaction—To test the involvement of MAPK cascade proteins on acrosome reaction the following drugs were added to the incubation medium: Progesterone (Sigma-Aldrich Corp., St Louis, Mo., USA), hZP-3 (human zona pellucida protein 3, obtained from P. Salling, N.C., USA) diluted in MOCK (F-10 medium containing 0.1% DMSO, Biological Industries, Beth Ha'Emek, Israel), A23187 (calcium ionophore, Calbiochem, La Jolla, Calif., USA), PD98059 (Biomol, Plymouth Meeting, Pa., USA), SB203580 (Biomol, Plymouth Meeting, Pa., USA) and GF109203X (PKC inhibitor, Calbiochem, La Jolla, Calif., USA). Acrosome reaction was determined as described elsewhere (Rotem et al., 1992).

human spermatozoa = assay: Drug effect on sperm motility (progressive flagellar motility)
Description: FIG. 8 is a graphic representation of the effect of progesterone and MAPK inhibitors on human spermatozoa motility. Human spermatozoa (5×10^7/ml) were incubated with PD98059 (ERK inhibitor, at 50 μM, FIG. 8, marked with “PD”) and SB203580 (p38 inhibitor, at 50 μM, FIG. 8, marked with “SB”), in the presence or absence of progesterone (at 5 μg/ml, FIG. 8, marked with “P”) for the indicated time. Percent motile spermatozoa was determined in aliquots of 10 μl. Results are expressed as mean ±SEM of three experiments.
Isolation of human sperm samples—Human semen were obtained upon informed consent from healthy donors having normal sperm density, motility and morphology (according to the World Health Organization (WHO) guidelines of 1992) following 3 days of sexual abstinence. Sperm samples were collected into sterile 50 ml tubes and semen was liquefied for 1 hour at 36° C., washed twice with HAM's F-10 medium (Biological Industries, Beth Ha'Emek, Israel) supplemented with 0.3% bovine serum albumin (BSA) and separated from non-sperm cells by a Percoll gradient centrifugation (Sigma-Aldrich Corp., St Louis, Mo., USA) essentially as described elsewhere (Rotem et al., 1990a, b). The resultant sperm sample contained approx. 50×10^6 sperm/ml.
as §4
Drug effect on sperm motility—To test the effect of MAPK inhibitors and progesterone on sperm motility the following drugs were added to the incubation medium: PD98059 (ERK inhibitor, Biomol, Plymouth Meeting, Pa., USA), SB203580 (p38 inhibitor, Biomol, Plymouth Meeting, Pa., USA) and progesterone (Sigma-Aldrich Corp., St Louis, Mo., USA). Progressive flagellar motility was determined as described elsewhere (Rotem et al., 1990a, b).

ERK 1 and ERK 2 = assay: Determination of phosphorylated ERK by in-gel kinase assay; details: human spermatozoa stimulated by progesterone 5 μg/ml, bands of 44 and 42 kDa, data not shown
Description: Determination of phosphorylated ERK by in-gel kinase assay—To further substantiate its role in spermatozoa maturation the phosphorylation state of ERK was determined by in-gel kinase assay as described elsewhere (Naor et al., 1999). […] Mitogen-activated protein (MAP) kinase pathways: regulation and physiological functions. Endocr. Rev. 22: 153-183] are active in human spermatozoa.

SMILES: [O]=[V]([O-])([O-])[O-] [vanadate]
phosphorylated ERK (Western blot signal) (ERK): could be detected only following treatment; also recorded: increased band intensity | phosphorylated form of p38 (Western blot signal) (p38): regardless of vanadate treatment

SMILES: CN(C)CCCn1cc(C2=C(c3c[nH]c4ccccc34)C(=O)NC2=O)c2ccccc21 [GF109203X]
AR stimulated by A23187 in the presence of inhibitor [1]: persisted | Acrosome reaction ([1]; GF109203X 100 nM, no inducer (Control)): 19 | Acrosome reaction ([1]; GF109203X 100 nM, with A23187 10 μM): 48 | Acrosome reaction ([1]; GF109203X 100 nM, with MOCK): 28 | Acrosome reaction ([1]; GF109203X 100 nM, with hZP3 50 ng/ml): 18 | Acrosome reaction ([1]; GF109203X 100 nM, with progesterone 5 μg/ml): 15 | stimulated AR observed in the presence of progesterone and hZP-3, effect of inhibitor [1]: markedly inhibited

SMILES: C[S+]([O-])c1ccc(-c2nc(-c3ccncc3)c(-c3ccc(F)cc3)[nH]2)cc1 (centres unmarked) [SB203580]
SB203580-induced increase in progressive flagellar motility (human spermatozoa; 50 μM SB203580 co-introduced with 5 μg/ml progesterone, FIG. 8 SB+P): completely abolished | sperm motility (percent motile spermatozoa), FIG. 8 legend (human spermatozoa; SB203580 50 μM in the presence of progesterone 5 μg/ml): normal motility | sperm motility (percent motile spermatozoa), FIG. 8 legend (human spermatozoa; human spermatozoa 5×10^7/ml, SB203580 50 μM): significant increase | increase in progressive flagellar motility (human spermatozoa; human spermatozoa, 50 μM SB203580, FIG. 8): over 120% | AR stimulated by A23187 in the presence of inhibitor [1]: persisted | non-specific increase in AR stimulated by MOCK, effect of inhibitor ([1]; MOCK-stimulated AR): inhibited | Acrosome reaction ([1]; SB203580 20 μM, no inducer (Control)): 17 | Acrosome reaction ([1]; SB203580 20 μM, with A23187 10 μM): 49 | Acrosome reaction ([1]; SB203580 20 μM, with MOCK): 15 | Acrosome reaction ([1]; SB203580 20 μM, with hZP3 50 ng/ml): 28 | Acrosome reaction ([1]; SB203580 20 μM, with progesterone 5 μg/ml): 11 | stimulated AR observed in the presence of progesterone and hZP-3, effect of inhibitor [1]: markedly inhibited

SMILES: COc1cccc(-c2cc(=O)c3ccccc3o2)c1N [PD98059]
progressive flagellar motility decreased to (human spermatozoa; human spermatozoa, 50 μM PD98059, transient, FIG. 8): 50% | AR stimulated by A23187 in the presence of inhibitor [1]: persisted | Acrosome reaction ([1]; PD98059 5 μM, no inducer (Control)): 17 | Acrosome reaction ([1]; PD98059 5 μM, with A23187 10 μM): 50 | Acrosome reaction ([1]; PD98059 5 μM, with MOCK): 25 | Acrosome reaction ([1]; PD98059 5 μM, with hZP3 50 ng/ml): 29 | Acrosome reaction ([1]; PD98059 5 μM, with progesterone 5 μg/ml): 18 | stimulated AR observed in the presence of progesterone and hZP-3, effect of inhibitor [1]: markedly inhibited

SMILES: CNc1ccc2oc(C[C@H]3O[C@@]4(CC[C@H]3C)O[C@H]([C@H](C)C(=O)c3ccc[nH]3)[C@H](C)C[C@H]4C)nc2c1C(=O)O [A23187]
Acrosome reaction ([1]; A23187 10 μM, no inhibitor (Control)): 51 | Acrosome reaction (AR) stimulated by inducer [1]: 140%

phosphorylation state of ERK (in-gel kinase assay) (ERK 1 and ERK 2): exhibited two phosphorylated bands
SMILES: CC(=O)[C@H]1CC[C@H]2[C@@H]3CCC4=CC(=O)CC[C@]4(C)[C@H]3CC[C@]12C [Progesterone, progesterone]
effect on progressive flagellar motility (human spermatozoa; human spermatozoa, 5 μg/ml progesterone, FIG. 8): no effect | Acrosome reaction (AR) stimulated by inducer [1]: 50% | Acrosome reaction ([1]; progesterone 5 μg/ml, no inhibitor (Control)): 31
